Measured values: the supplement of paper PMC10949913

Tests used:
Settings in all cases: 48 h
[1] = tested on: NCI-H295R; test: AC50 viability; higher = less potent
In short: (§1)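 Three adrenocortical carcinoma cell lines were exposed for 48 h to library compounds at 11 concentrations in 1,536-well plates, then read by CellTiter-Glo luminescence. Signals were scaled per plate against vehicle and empty-well controls. From fitted concentration-response curves of inhibitory or non-responding classes alone, AC50 and area under the curve were obtained.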

[2] = tested on: CU-ACC1; test: area under concentration-response curve (viability) (AUC (a.u.)); higher = less active
In short: as §1

[3] = tested on: CU-ACC2; test: as above
In short: as §1

[4] = tested on: NCI-H295R; test: as above
In short: as §1

CN1\C(=C(O)/C2=C(C=C(Cl)S2)[S+]1([O-])=O)C(=O)NC3=NC=CC=C3
AC50 viability [1]: 0.118 µM
area under concentration-response curve [2]: 434
area under concentration-response curve [3]: 421
area under concentration-response curve [4]: 380

C[C@@H]1COCCN1c1cc(C2([S@+](C)(=N)[O-])CC2)nc(-c2ccnc3[nH]ccc23)n1
AC50 viability [1]: 16.6 µM
area under concentration-response curve [2]: 524
area under concentration-response curve [3]: 491
area under concentration-response curve [4]: 525

COC(=O)[C@@H]1[C@H]2C[C@H]3c4[nH]c5ccccc5c4CCN3C[C@@H]2CC[C@@H]1O
AC50 viability [1]: 18.6 µM
area under concentration-response curve [2]: 443
area under concentration-response curve [3]: 458
area under concentration-response curve [4]: 442

COC(=O)c1ccc([C@H]2c3[nH]c4ccccc4c3C[C@H](C(=O)OC)N2C(=O)CCl)cc1
AC50 viability [1]: 0.263 µM
area under concentration-response curve [2]: 385
area under concentration-response curve [3]: 360
area under concentration-response curve [4]: 356

CC(C)c1onc(-c2c(Cl)cccc2Cl)c1COc1ccc(/C=C/c2cccc(C(=O)O)c2)c(Cl)c1
AC50 viability [1]: 13.2 µM
area under concentration-response curve [2]: 442
area under concentration-response curve [3]: 508
area under concentration-response curve [4]: 480

Nc1nc2ccc(OC(F)(F)F)cc2s1
AC50 viability [1]: 0.00372 µM
area under concentration-response curve [2]: 493
area under concentration-response curve [3]: 431
area under concentration-response curve [4]: 503

COc1cc(Oc2ccnc3cc(OC)c(OC)cc23)ccc1NC(=O)NC(C)c1nccs1 (centres undefined)
AC50 viability [1]: 14.8 µM
area under concentration-response curve [4]: 540

COC1=CC=C(C=C1)C2=NC3=CC(=CC=C3[NH]2)/C4=N/NC(=O)CC4C (centres undefined)
AC50 viability [1]: 18.6 µM
area under concentration-response curve [2]: 532
area under concentration-response curve [3]: 632
area under concentration-response curve [4]: 541

CC(C)n1ncnc1-c1cn2c(n1)-c1ccc(O[C@@H](C)C(N)=O)cc1OCC2
AC50 viability [1]: 1.05 µM
area under concentration-response curve [2]: 364
area under concentration-response curve [3]: 582
area under concentration-response curve [4]: 491

CN(C)C/C=C/C(=O)Nc1cccc(C(=O)Nc2cccc(Nc3ncc(Cl)c(-c4c[nH]c5ccccc45)n3)c2)c1
AC50 viability [1]: 1.66 µM
area under concentration-response curve [2]: 434
area under concentration-response curve [3]: 437
area under concentration-response curve [4]: 444

O=C1\C=C(OC2=C1SC=C2C3=CC=C4OCCOC4=C3)\N5CCOCC5
AC50 viability [1]: 0.0742 µM
area under concentration-response curve [2]: 293
area under concentration-response curve [3]: 276
area under concentration-response curve [4]: 350

COc1c(C)c2c(c(O)c1C/C=C(\C)CCC(=O)O)C(=O)OC2
AC50 viability [1]: 0.59 µM
area under concentration-response curve [2]: 467
area under concentration-response curve [3]: 561
area under concentration-response curve [4]: 482

CC(C)(O)CNc1nc(Nc2ccnc(C(F)(F)F)c2)nc(-c2cccc(C(F)(F)F)n2)n1
AC50 viability [1]: 16.6 µM
area under concentration-response curve [2]: 402
area under concentration-response curve [4]: 417

Cc1cc2c(F)c(Oc3ncnn4cc(OCC(C)OC(=O)C(C)N)c(C)c34)ccc2[nH]1 (centres undefined)
AC50 viability [1]: 18.6 µM
area under concentration-response curve [2]: 473
area under concentration-response curve [3]: 468
area under concentration-response curve [4]: 481

Clc1ccc(CCC(Cn2ccnc2)Sc2c(Cl)cccc2Cl)cc1 (centres undefined)
AC50 viability [1]: 33.2 µM
area under concentration-response curve [4]: 491

CN(C)CCNC(=O)NC[C@H]1CC[C@@H]2[C@H](O1)c1cc(C(F)(F)F)ccc1N[C@H]2c1ccccc1
AC50 viability [1]: 5.9 µM
area under concentration-response curve [4]: 437

NC(=O)[C@H]1CCS[C@@H]2C[C@]3(CCCN3C(=O)Cc3ccc(NC(=O)COc4ccc(Cl)cc4Cl)cc3)C(=O)N12
AC50 viability [1]: 14.8 µM
area under concentration-response curve [3]: 528
area under concentration-response curve [4]: 483

CC[C@]12\C=C/CN3CC[C@]4([C@@H](N(C)C5=CC(=C(C=C45)[C@]6(C[C@H]7C[C@H](CN(C7)CC8=C6[NH]C9=C8C=CC=C9)C(C)(F)F)C(=O)OC)OC)[C@](O)([C@@H]1OC(C)=O)C(=O)OC)[C@H]23
AC50 viability [1]: 0.698 µM
area under concentration-response curve [2]: 538
area under concentration-response curve [4]: 527

Cc1cc(C(=O)N2CCN(c3cccc(Cl)c3)CC2)n(-c2ccccc2)n1
AC50 viability [1]: 2.95 µM
area under concentration-response curve [3]: 648
area under concentration-response curve [4]: 515

Cc1ccc(Nc2nnc(Cc3ccncc3)c3ccccc23)cc1Br
AC50 viability [1]: 18.6 µM
area under concentration-response curve [4]: 438

Cc1ccc(-c2nn(C(C)(C)CNC(=O)c3ccncc3)c3ncnc(N)c23)cc1
AC50 viability [1]: 16.6 µM
area under concentration-response curve [2]: 515
area under concentration-response curve [4]: 512

CON(C)C(=O)N1/N=C(S[C@@]1(CCCN)C2=CC=CC=C2)/C3=CC(=CC=C3F)F
AC50 viability [1]: 2.09 µM
area under concentration-response curve [3]: 517
area under concentration-response curve [4]: 348
